Test results: BindingDB's records for doi:10.1038/nbt1059 (Plexxikon, 2005)

How the values were obtained:
[1] = biological target: T1, cAMP-specific 3',5'-cyclic phosphodiesterase 4B [316-320,321-700,S319G,N320S,N321H,T322M] (Homo sapiens, UniProt Q07343, S319G/N320S/N321H/T322M); assay: Phosphodiesterase (PDE) Inhibition Assay; details: pH 7.5; 30 °C
T1 construct: 316-320,321-700
Procedure: (§1) Phosphodiesterase activities were assayed in the presence of inhibitor compounds. Measurement takes advantage of the selective binding of 5-AMP or 5-GMP (and not cAMP or cGMP) to yttrium silicate beads with embedded scintillant. Hydrolysis is quantified by reading in a scintillation counter (Trilux, Wallac). The cAMP and cGMP concentrations used were far below the Km of PDE.

[2] = biological target: cAMP-specific 3',5'-cyclic phosphodiesterase 4D [372-376,381-715,S375G,I381V,S383G,G384S,V385H,K386M) (Homo sapiens, UniProt Q08499, S375G/I381V/S383G/G384S/V385H/K386M); assay: Phosphodiesterase (PDE) Inhibition Assay
Procedure: as §1

Compound | IC50 [1] [µM] | IC50 [2] [µM]
Cc1n[nH]c(C)c1C(=O)O [3,5-dimethyl-1H-pyrazole-4-carboxylic acid] | > 200 | > 200
CCOC(=O)c1c(C)nn(-c2cccc3cccnc23)c1C [ethyl 3,5-dimethyl-1-(quinolin-8-yl)-1H-pyrazole-4-carboxylate] | 17 | 19
CCOC(=O)c1c(C)nn(-c2ccc(N)cc2)c1C [ethyl 1-(4-aminophenyl)-3,5-dimethyl-1H-pyrazole-4-carboxylate] | 0.35 | 
CCOC(=O)c1c(C)nn(-c2ccc(OC(F)(F)F)cc2)c1C [ethyl 3,5-dimethyl-1-[4-(trifluoromethoxy)phenyl]-1H-pyrazole-4-carboxylate] | 32 | 21
CCOC(=O)c1cn[nH]c1C [ethyl 3-methyl-1H-pyrazole-4-carboxylate] | > 200 | > 200
CCOC(=O)c1c(C)nn(-c2ccccc2Cl)c1C [ethyl 1-(2-chlorophenyl)-3,5-dimethyl-1H-pyrazole-4-carboxylate] |  | 0.019
CCOC(=O)c1cnn(-c2ncnc3sc4c(c23)CCCC4)c1N [ethyl 5-amino-1-{8-thia-4,6-diazatricyclo[7.4.0.0^{2,7}]trideca-1(9),2(7),3,5-tetraen-3-yl}-1H-pyrazole-4-carboxylate] | 25 | 50
CCOC(=O)c1cn[nH]c1N [ethyl 3-amino-1H-pyrazole-4-carboxylate] | > 200 | > 200
CCOC(=O)c1c(C)nn(-c2ccc(OC)cc2)c1C [ethyl 1-(4-methoxyphenyl)-3,5-dimethyl-1H-pyrazole-4-carboxylate] | 5.9 | 
CCOC(=O)c1c(C)nn(-c2ccc([N+](=O)[O-])cc2)c1C [ethyl 3,5-dimethyl-1-(4-nitrophenyl)-1H-pyrazole-4-carboxylate] | 0.84 | 1
COC(=O)c1c(-c2cc(C)on2)n[nH]c1C [methyl 3-methyl-5-(5-methyl-1,2-oxazol-3-yl)-1H-pyrazole-4-carboxylate] | > 200 | > 200
CCOC(=O)c1c(C)nn(-c2ccccc2)c1C [ethyl 3,5-dimethyl-1-phenyl-1H-pyrazole-4-carboxylate] | 0.31 | 
CCOC(=O)c1cn(-c2ccccc2)nc1-c1ccc(Cl)cc1 [ethyl 3-(4-chlorophenyl)-1-phenyl-1H-pyrazole-4-carboxylate] | 1.5 | 0.88
CCOC(=O)c1c[nH]nc1C(F)(F)F [5-(trifluoromethyl)-1H-pyrazole-4-carboxylic acid ethyl ester] | > 200 | > 200
CCOC(=O)c1c(C)nn(-c2ccc([N+](=O)[O-])cc2[N+](=O)[O-])c1C [ethyl 1-(2,4-dinitrophenyl)-3,5-dimethyl-1H-pyrazole-4-carboxylate] | 17 | 4.6
CCOC(=O)c1c(C)n[nH]c1C [ethyl 3,5-dimethyl-1H-pyrazole-4-carboxylate] | 60 | 
CCOC(=O)c1c(C)nn(-c2ccc(C(C)(C)C)cc2)c1C [ethyl 1-(4-tert-butylphenyl)-3,5-dimethyl-1H-pyrazole-4-carboxylate] | 19 | 14
CCOC(=O)c1c(C)nn(-c2cc(C(F)(F)F)cc(C(F)(F)F)c2)c1C [ethyl 1-[3,5-bis(trifluoromethyl)phenyl]-3,5-dimethyl-1H-pyrazole-4-carboxylate] | 160 | 97
CCOC(=O)c1c(C)nn(-c2ccc(S(N)(=O)=O)cc2)c1C [ethyl 3,5-dimethyl-1-(4-sulfamoylphenyl)-1H-pyrazole-4-carboxylate] | 13 | 9.1
CCOC(=O)c1c(-c2ccc(OC)cc2)n[nH]c1N [ethyl 3-amino-5-(4-methoxyphenyl)-1H-pyrazole-4-carboxylate] | 15 | 19
